Tests used:
FII and FX = assay: Sequential Fiix-INR (Fiix-PT) measurements over 49 days in a single patient starting on warfarin; assay type: in vivo, human; conditions: FIG. 6
From the text: The test results may be obtained as clotting time, clotting time ratio or any other endpoint measuring thrombin generation or fibrin formation. […] Since this is a variant of the prothrombin time we call it “Fiix-prothrombin time” or Fiix-PT.
In our new method, which we call Fiix-method, a test plasma sample (patient plasma) is mixed with normal plasma that has been immunodepleted of both FII and FX (Fiix-deficient plasma). Using such mixture, by adding thromboplastin and calcium, a prothrombin time variant can be measured that is only sensitive to FII and FX, ie Fiix-PT. In the Fiix-PT the proportions of test plasma to Fiix-deficient plasma can be in the range from 1:1 to 1:20 parts, preferably in the range from 1:2 to 1:10 (see below).
Based on the experiments shown in FIG. 4 we decided to measure the Fiix-PT by mixing […] of a 1:7 dilution of test plasma with 25 uL of Fiix-deficient plasma (i.e. final proportion 1 part test plasma to 2.2 parts Fiix-deficient plasma). We then measured “Fiix-PT” in samples from 38 patients on stable warfarin therapy and calculated the international normalized ratio (“Fiix-INR”). […] Corresponding results were found when Fiix-INR was correlated with Quick PT based INR(PT-INR, data not shown).
In FIG. 6 we show sequential measurements of Fiix-INR, PP-INR, FII, FVII and FX over 49 days in a single patient starting on warfarin. […]

FII, FVII and FX = assay: Sequential PT-INR (PP-INR) measurements over 49 days in a single patient starting on warfarin; assay type: in vivo, human; conditions: FIG. 6, grey zone
Experimental: Both the Quick prothrombin time (PT) and the Owren's prothrombin time (prothrombin proconverting time, P&P test) were measured on patient samples. The STA-R coagulation analyzer was used (Diagnostika Stago, Asnieres, France). The PT was done using the STA-Néoplastine® CI plus as coagulation reagent, with and ISI value of 1.3 and the P&P was done using the STA-SPA 50 reagent with ISI of 1.01 (both from Diagnostika Stago). The P&P reagent is similar to the PT reagent but also consists of added absorbed bovine plasma as a source of coagulation factor V and fibrinogen and, thus, is only sensitive to the activity of FII, FVII and FX. The P&P percentages were calculated from a standard curve based on serially diluted pooled plasma in Owren's buffer. The INR is calculate as described above.
In FIG. 6 we show sequential measurements of Fiix-INR, PP-INR, FII, FVII and FX over 49 days in a single patient starting on warfarin. The amount of coagulation factors (percentage) is shown on the left Y-axis and the INR value on the right Y-axis. The change in INR in relation to changes in concentrations of the VKD factors can be derived from the graph. […]

## CC(=O)CC(c1ccccc1)c1c(O)c2ccccc2oc1=O (centres unmarked) [warfarin]
FII and FX
  day on which the patient reaches an acceptable INR value (acceptable anticoagulation) by Fiix-INR: 5 days
FII, FVII and FX
  day on which the patient has reached an acceptable anticoagulated range by PT-INR: 3 days

From patent publication US9234902B2, “Method for monitoring anticoagulant therapy” (priority 2011, dated 2016)
